Results taken from PubChem BioAssay AID1963431 (Molecular Pharmacology Branch, DTP, NCI, 2024).

Tested on: Rh18 complex spheroid viability, percent test/control
Test: Anticancer human tumor Rh18 cell line growth inhibition [Asc];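 note: spheroids exposed to compound for 7 days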;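 for viability, T/C: 100% = DMSO vehicle control wells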
Conditions: for IC50: curve of first compound; for viability, T/C: stronger effect = lower value
Experimental: Multicellular complex tumor spheroid response to apoptosis pathway targeting inhibitors Alrizomadlin, Pelcitoclax, and Dasminapant in combination with a variety of drugs and investigational agents in selected tumor cell lines
The MDM2 inhibitor alrizomadlin, the Bcl-2/Bcl-xL inhibitor pelcitoclax, and the IAPs inhibitor dasminapant were evaluated both individually and in combination with standard of care and investigational anticancer small molecules within a complex spheroid model of solid tumors. . Complex spheroids include a stromal component modeled by human endothelial cells (HUVEC) and fibroblasts modeled by human mesenchymal stem cells (MSCs). The concentration ranges selected for each drug and investigational agent were based upon clinically achievable concentrations if the clinical Cmax of the agent was known.
Compounds. The drugs and investigational agents: alrizomadlin (APG-115; NSC831270), pelcitoclax (APG-1252; NSC835773), dasminapant (APG-1387;NSC834197), TAK-243 (NSC785004), copanlisib (NSC809693), olaparib (NSC753686), talazoparib (NSC767125), cobimetinib (NSC 768068), eltanexor (KPT-8602, NSC 794443), abemaciclib (NSC 768073), sotorasib (NSC818433), adagrasib (NSC 831453), MRTX-1133 (NSC 836407), Iadademestat (ORY1001, NSC 806812), and RMC-4630 (NSC839698), were obtained from the NCI Developmental Therapeutics Program Chemical Repository. The FDA-approved anticancer drug set is available from the Developmental Therapeutics Program at https://dtp.cancer.gov/organization/dscb/obtaining/available plates.htm. […] The stock solutions were prepared in dimethyl sulfoxide (DMSO, Sigma-Aldrich, St. Louis, MO, cat. D2650) at 800-fold the tested concentration and stored at -70 degrees C prior to their use. All drugs and investigational agents were tested over a range starting from a high concentration at or near the clinical Cmax and decreasing in half-log increments. If the clinical Cmax for an agent had not been determined, the highest concentration tested was 10 microM.
The patient-derived cancer (PDC) cell lines include five colon adenocarcinomas: 186277-243-T-J2-PDC, 616215-338-R-J1-PDC, 439559-082-T-J2-PDC, 463943-066-T-J2-PDC, and 519858-162-T-J1-PDC; three pancreatic carcinomas: 323965-272-R-J2-PDC, 521955-158-R6-J3-PDC, and 521955-158-R2-J5-PDC; two uterine sarcomas: 327498-152-R-J2-PDC and 993429-296-R-J1-PDC; two rhabdomyosarcomas: 755483-174-R-J1-PDC and 772245-204-R-J1-PDC; two soft tissue sarcomas: 126254-015-R-J1-PDC and 494315-158-R-J1-PDC; two malignant fibrous histiocytomas: 317291-083-R-J1-PDC and 596521-263-R-J1-PDC; two breast carcinomas: 171881-019-R-J1-PDC and 885512-296-R-J2-PDC; and one ovarian carcinoma: 6556581-035-R-J-PDC were obtained from the NCI PDMR, (https://pdmr.cancer.gov). The established cell lines HSSY-2 synovial sarcoma (RRID:CVCL 8719), SYO-1 synovial sarcoma (RRID:CVCL_7146), MPNST malignant peripheral neural sheath tumor were obtained from the Sloan Kettering Institute. The following established cell lines were purchased from the American Type Culture Collection (ATCC, Manassas, VA), Sor the received from the NCI repository:, PANC-1 pancreatic carcinoma (CRL-1469, RRID:CVCL_0480), OVCAR-5 ovarian carcinoma (RRID:CVCL_1628), OVCAR-8 ovarian carcinoma (RRID:CVCL_1629), , MCF-7 breast carcinoma (CRL-12584, RRID:CVCL_0031), MDA-MB-231 breast carcinoma (CRL-12532, RRID:CVCL_0062), NCI-H1876 small cell lung carcinoma (CRL-5902, RRID:CVCL_1503), NCI-H510A small cell lung carcinoma (HTB-184, RRID:CVCL_1565), NCI-H1417 (CRL-5869, RRID:CVCL_1469), and NCI-H196 small cell lung carcinoma (CRL-5823, RRID:CVCL_1509). Dr. Peter Houghton (Greehey Children's Cancer Research Institute, University of Texas Health Science Center, San Antonio, TX) provided Rh-18 rhabdomyosarcoma (RRID:CVCL_1659). Pooled donor human umbilical vein endothelial cells (HUVEC, Lonza, cat. CC-2519) and human mesenchymal stem cells (hMSC, Lonza, cat. PT-2501) were purchased from Lonza (Walkersville, MD).
Cell Culture. […]

Question: How did the IC50 (second compound 0.03 µM) turn out when `NC(=O)C(=Cn1cnc(-c2cc(C(F)(F)F)cc(C(F)(F)F)c2)n1)c1cncnc1` + CCN1C(C(=O)NC23CCC(C(=O)O)(CC2)CC3)C(c2cccc(Cl)c2F)C2(C(=O)Nc3cc(Cl)ccc32)C12CCCCC2 was run?
Answer: The IC50 was < 0.949 nM.

Question: And the IC50 (second compound 0.0949 µM)?
Answer: The IC50 was < 0.949 nM.

Question: What about the IC50 (second compound 0.3 µM) of the same compound?
Answer: Its IC50 is < 0.949 nM.

Question: And the IC50 (second compound 0.949 µM)?
Answer: The IC50 was < 0.949 nM.

Question: And the IC50 (second compound 3 µM)?
Answer: The IC50 was < 0.949 nM.

Question: What about the viability, T/C (second compound 0.03 µM, first compound 0.000949 µM) of the same compound?
Answer: Its viability, T/C is 39.2%.

Question: And the viability, T/C (second compound 0.03 µM, first compound 0.003 µM)?
Answer: The viability, T/C was 32%.

Question: And the viability, T/C (second compound 0.03 µM, first compound 0.00949 µM)?
Answer: The viability, T/C was 37.7%.

Question: And the viability, T/C (second compound 0.03 µM, first compound 0.03 µM)?
Answer: The viability, T/C was 32%.

Question: What about the viability, T/C (second compound 0.03 µM, first compound 0.0949 µM) of the same compound?
Answer: The viability, T/C was 26.6%.

Question: What about the viability, T/C (second compound 0.03 µM, first compound 0.3 µM) of the same compound?
Answer: The viability, T/C was 22.1%.

Question: And the viability, T/C (second compound 0.0949 µM, first compound 0.000949 µM)?
Answer: The viability, T/C was 19.4%.

Question: What about the viability, T/C (second compound 0.0949 µM, first compound 0.003 µM) of the same compound?
Answer: The viability, T/C was 18.7%.

Question: And the viability, T/C (second compound 0.0949 µM, first compound 0.00949 µM)?
Answer: Its viability, T/C is 16.7%.

Question: And the viability, T/C (second compound 0.0949 µM, first compound 0.03 µM)?
Answer: Its viability, T/C is 12.7%.

Question: And the viability, T/C (second compound 0.0949 µM, first compound 0.0949 µM)?
Answer: Its viability, T/C is 9.47%.

Question: What about the viability, T/C (second compound 0.0949 µM, first compound 0.3 µM) of the same compound?
Answer: Its viability, T/C is 4.98%.

Question: And the viability, T/C (second compound 0.3 µM, first compound 0.000949 µM)?
Answer: Its viability, T/C is 9.47%.

Question: What about the viability, T/C (second compound 0.3 µM, first compound 0.003 µM) of the same compound?
Answer: The viability, T/C was 9.88%.

Question: And the viability, T/C (second compound 0.3 µM, first compound 0.00949 µM)?
Answer: Its viability, T/C is 9.7%.

Question: What about the viability, T/C (second compound 0.3 µM, first compound 0.03 µM) of the same compound?
Answer: Its viability, T/C is 6.03%.

Question: And the viability, T/C (second compound 0.3 µM, first compound 0.0949 µM)?
Answer: Its viability, T/C is 5%.

Question: And the viability, T/C (second compound 0.3 µM, first compound 0.3 µM)?
Answer: Its viability, T/C is 1.69%.

Question: And the viability, T/C (second compound 0.949 µM, first compound 0.000949 µM)?
Answer: The viability, T/C was 7.7%.

Question: What about the viability, T/C (second compound 0.949 µM, first compound 0.003 µM) of the same compound?
Answer: The viability, T/C was 9.36%.

Question: What about the viability, T/C (second compound 0.949 µM, first compound 0.00949 µM) of the same compound?
Answer: The viability, T/C was 6.31%.

Question: And the viability, T/C (second compound 0.949 µM, first compound 0.03 µM)?
Answer: Its viability, T/C is 4.21%.

Question: And the viability, T/C (second compound 0.949 µM, first compound 0.0949 µM)?
Answer: Its viability, T/C is 3.62%.

Question: What about the viability, T/C (second compound 0.949 µM, first compound 0.3 µM) of the same compound?
Answer: Its viability, T/C is 1.42%.

Question: And the viability, T/C (second compound 3 µM, first compound 0.000949 µM)?
Answer: The viability, T/C was 6.6%.

Question: What about the viability, T/C (second compound 3 µM, first compound 0.003 µM) of the same compound?
Answer: The viability, T/C was 6.14%.

Question: And the viability, T/C (second compound 3 µM, first compound 0.00949 µM)?
Answer: Its viability, T/C is 5.36%.

Question: What about the viability, T/C (second compound 3 µM, first compound 0.03 µM) of the same compound?
Answer: The viability, T/C was 4.12%.

Question: And the viability, T/C (second compound 3 µM, first compound 0.0949 µM)?
Answer: Its viability, T/C is 2.88%.

Question: What about the viability, T/C (second compound 3 µM, first compound 0.3 µM) of the same compound?
Answer: Its viability, T/C is 1.03%.
